Results on 13 compounds are retold here after patent US8664387B2, “Pyridoquinazolinone M1 receptor positive allosteric modulators” (Merck Sharp & Dohme Corp., priority 2009, dated 2014).

Each structure is given as a SMILES string.

For this test, the target named is T1, acetylcholine muscarinic M1 receptor (Homo sapiens, UniProt P11229).
T1 construct: expressed in transfected cells; host or cells: CHOnfat cells (CHOnfat/hM1; geneticin selection)
T1 sequence (P11229 1-460): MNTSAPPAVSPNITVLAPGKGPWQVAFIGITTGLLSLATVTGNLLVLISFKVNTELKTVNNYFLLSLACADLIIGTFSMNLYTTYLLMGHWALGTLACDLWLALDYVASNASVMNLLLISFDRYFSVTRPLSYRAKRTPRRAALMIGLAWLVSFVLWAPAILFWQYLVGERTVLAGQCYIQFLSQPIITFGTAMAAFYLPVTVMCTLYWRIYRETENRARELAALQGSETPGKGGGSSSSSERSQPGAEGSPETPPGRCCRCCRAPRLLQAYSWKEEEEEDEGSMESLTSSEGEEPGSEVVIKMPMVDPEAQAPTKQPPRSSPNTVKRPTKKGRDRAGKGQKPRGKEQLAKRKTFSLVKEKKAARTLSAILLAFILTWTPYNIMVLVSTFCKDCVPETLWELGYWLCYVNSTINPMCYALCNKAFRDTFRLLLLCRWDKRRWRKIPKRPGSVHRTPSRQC
The test is described as follows: muscarinic FLIPR calcium assay, M1 positive allosteric modulation. The test is classed as cell-based. Conditions: CHOnfat/hM1 cells, FLIPR intracellular Ca2+, 4 min preincubation, then EC20 acetylcholine (3 nM final); read-out: IP Value (inflection point). On the procedure:
The assay studies the effect of one or several concentrations of test compounds on basal or acetylcholine-stimulated Ca^2+ levels using FLIPR.
Compounds are prepared and subjected to a preincubation period of 4 min. Thereafter, a single EC20 concentration of acetylcholine is added to each well (3 nM final). The intracellular Ca^2+ level of each sample is measured and compared to an acetylcholine control to determine any modulatory activity.
Cells: CHOnfat/hM1, hM2, hM3 or hM4 cells are plated 24 hr before the assay at a density of 18,000 cells/well (100 μL) in a 384 well plate. CHOnfat/hM1 and CHOnfat/hM3 Growth Medium: 90% DMEM (Hi Glucose); 10% HI FBS; 2 mM L-glutamine; 0.1 mM NEAA; Pen-Strep; and 1 mg/ml Geneticin, are added. For M2Gqi5CHOnfat and M4Gqi5CHOnfat cells, an additional 600 ug/ml hygromycin is added.
Equipment: 384 well plate, 120 μL addition plate; 96-well Whatman 2 ml Uniplate Incubator, 37° C., 5% CO2; Skatron EMBLA-384 Plate Washer; Multimek Pipetting System; Genesis Freedom 200 System; Mosquito System; Temo Nanoliter Pipetting System; and FLIPR^384 Fluorometric Imaging Plate Reader System are used.
Buffers. Assay Buffer: Hanks Balanced Salt Solution, with 20 mM Hepes, 2.5 mM Probenecid (Sigma P-8761) first dissolved in 1 N NaOH, 1% Bovine Serum Albumin (Sigma A-9647). Dye Loading Buffer: Assay Buffer plus 1% Fetal Bovine Serum and Fluo-4AM/Pluronic Acid Mixture. 2 mM Fluo-4AM ester stock in DMSO (Molecular Probes F-14202) Concentration of 2 μM in buffer for a final concentration of 1 μM in Assay. 20% Pluronic Acid Solution stock, with concentration of 0.04% in Buffer, 0.02% in Assay.
65 μL of 2 mM Fluo-4AM are mixed with 130 μL of 20% Pluronic Acid. The resulting solution and 650 μL FBS is added to the assay buffer for a total volume of 65 mL. Positive Controls: 4-Br-A23187: 10 mM in DMSO; final concentration 10 μM. Acetylcholine: 10 mM in water, working stock at both 20 μM and 30 µM in assay buffer, final concentration of 10 μM. This is used to check the maximum stimulation of the CHOK1/hM1 cells. 20 μM (2×) acetylcholine is added in the preincubation part of the assay, and the 30 μM (3×) stock is added in the second part. (EC20)Acetylcholine: 10 mM in water, working stock of 9 nM (3×), and final concentration in assay is 3 nM. This is used after the preincubation with test compounds. Addition of the EC20 Acetylcholine to each well with a test compound will ascertain any modulator activity. 24 wells contain 3 nM Acetylcholine alone as a control.
Determining Activity of Putative Compounds: • Screening Plate: Compounds are titrated in 96-well plates (columns 2-11), 100% DMSO, started at a concentration of 15 mM (150× stock concentration), and 3-fold serial dilutions using Genesis Freedom200 System. Four 96-well plates are combined into a 384-well plate using Mosquito Nanoliter Pipetting System by transferring 1 μl of serial diluted compounds to each well, and 1 mM acetylcholine (100× stock concentration) were added as a control. Using Temo, 49 μl assay buffer is added to each well of the 384-well plate right before assay.
In a 96-well Whatman 2 ml Uniplate, 9 nM Acetylcholine (3×) is pipetted into wells corresponding to the screening compounds, and into control wells. The 30 μM acetylcholine control (3×) is added into control wells, and the 3× agonist plate is transferred into a 384 well plate.
Cells are washed three times with 100 μL of buffer, leaving 30 μL of buffer in each well. Using Multimek, 30 μL of Dye Loading Buffer is added into each well and incubated at 37° C., 5% CO2 for up to one hr.
After 60 min, the cells are washed three times with 100 μL of buffer, leaving 30 μL of buffer in each well. The cell plate, screening plate, and agonist addition plates are placed on the platform in the FLIPR and the door closed. A signal test to check background fluorescence and basal fluorescence signal is performed. Laser intensity is adjusted if necessary. […]

In the case of `O=c1c2cc(Cc3ccc(Cl)nc3)c3cnccc3c2ncn1[C@H]1CCCC[C@@H]1O` [Example 1, 6-[(6-Chloropyridin-3-yl)methyl]-3-[(1S,2S)-2-hydroxycyclohexyl]pyrido[3,4-h]quinazolin-4(3H)-one], the EC50 is 38 nM. For the compound `O=c1c2cc(Cc3ccc(Cl)nc3)c3cnccc3c2ncn1[C@H]1CCOC[C@@H]1O` [Example 2, 6-[(6-Chloropyridin-3-yl)methyl]-3-[(3R,4S)-3-hydroxytetrahydro-2H-pyran-4-yl]pyrido[3,4-h]quinazolin-4(3H)-one], the EC50 was 176 nM.

As for `Cc1ccc(Cc2cc3c(=O)n([C@H]4CCCC[C@@H]4O)cnc3c3ccncc23)cn1` [Example 4, 3-[(1S,2S)-2-Hydroxycyclohexyl]-6-[(6-methylpyridin-3-yl)methyl]pyrido[3,4-h]quinazolin-4(3H)-one], the EC50 stood at 41 nM. Take `COc1ccc(Cc2cc3c(=O)n([C@H]4CCCC[C@@H]4O)cnc3c3ccncc23)cn1` [Example 5, 3-[(1S,2S)-2-Hydroxycyclohexyl]-6-[(6-methoxypyridin-3-yl)methyl]pyrido[3,4-h]quinazolin-4(3H)-one]: the EC50 came out at 110 nM. The result for `CSc1ccc(Cc2cc3c(=O)n([C@H]4CCCC[C@@H]4O)cnc3c3ccncc23)cn1` [Example 6, 3-[(1S,2S)-2-Hydroxycyclohexyl]-6-{[6-(methylthio)pyridine-3-yl]methyl}pyrido[3,4-h]quinazolin-4(3H)-one] reads 71 nM; that for `O=c1c2cc(Cc3ccc(-n4cccn4)nc3)c3ncccc3c2ncn1[C@H]1CCCC[C@@H]1O` [Example 7, 3-[(1S,2S)-2-Hydroxycyclohexyl]-6-{[6-(1H-pyrazol-1-yl)pyridine-3-yl]methyl}pyrido[2,3-h]quinazolin-4(3H)-one], 29 nM; that for `Cn1cc(-c2ccc(Cc3cc4c(=O)n([C@H]5CCCC[C@@H]5O)cnc4c4ccncc34)cn2)cn1` [Example 8, 3-[(1S,2S)-2-Hydroxycyclohexyl]-6-{[6-(1-methyl-1H-pyrazol-4-yl)pyridine-3-yl]methyl}pyrido[3,4-h]quinazolin-4(3H)-one], 6 nM.

As for `O=c1c2cc(Cc3ccc(-c4cnccn4)nc3)c3cnccc3c2ncn1[C@H]1CCCC[C@@H]1O` [Example 9, 3-[(1S,2S)-2-Hydroxycyclohexyl]-6-[(6-pyrazin-2-ylpyridin-3-yl)methyl]pyrido[3,4-h]quinazolin-4(3H)-one], the EC50 is 64 nM. The result for `O=Cc1ccc(Cc2cc3c(=O)n([C@H]4CCCC[C@@H]4O)cnc3c3ccncc23)cc1` [Example 10, 4-({3-[(1S,2S)-2-Hydroxycyclohexyl]-4-oxo-3,4-dihydropyrido[3,4-h]quinazolin-6-yl}methyl)benzaldehyde] reads 36 nM. For the compound `CC(O)c1ccc(Cc2cc3c(=O)n([C@H]4CCCC[C@@H]4O)cnc3c3ccncc23)cc1` (stereo partly drawn) [Example 11, 3-[(1S,2S)-2-Hydroxycyclohexyl]-6-[4-(1-hydroxyethyl)benzyl]pyrido[3,4-h]quinazolin-4(3H)-one], the EC50 was 92 nM. `CCC(O)c1ccc(Cc2cc3c(=O)n([C@H]4CCCC[C@@H]4O)cnc3c3ccncc23)cc1` (stereo partly drawn) [Example 12, 3-[(1S,2S)-2-Hydroxycyclohexyl]-6-[4-(1-hydroxypropyl)benzyl]pyrido[3,4-h]quinazolin-4(3H)-one]: the EC50 was 130 nM. To `O=c1c2cc(Cc3ccc(N4CCOCC4)cc3)c3cnccc3c2ncn1[C@H]1CCCC[C@@H]1O` [Example 13, 3-[(1S,2S)-2-Hydroxycyclohexyl]-6-(4-morpholin-4-ylbenzyl)pyrido[3,4-h]quinazolin-4(3H)-one] belongs 91 nM; to `Cc1cc(Cc2cc3c(=O)n([C@H]4COCC[C@@H]4O)cnc3c3cccnc23)ccn1` [Example 14, 3-[(3S,4S)-4-Hydroxytetrahydro-2H-pyran-3-yl]-6-[(2-methylpyridin-4-yl)methyl]pyrido[2,3-h]quinazolin-4(3H)-one], 851 nM.
